Source: patent publication US20020058266A1, “EF-Tu protein encoded on the plastid DNA of the malaria parasite and protein synthesis inhibitors effective as anti-malarial compounds” (priority 1997, published 2002)

Legend:
[1] = system: erythrocytic stages of P.falciparum; experiment: Incorporation of radiotracers (3H-hypoxanthine, 14C-isoleucine) by P.falciparum growing in blood cultures; assay type: cell-based, Plasmodium falciparum
Description: Antibiotics—Samples of Mocimycin (kirromycin), Aurodox (N-methylated kirromycin), and Efrotomycin (a glycoside of kirromycin) were used. Aurodox was dissolved in RPMI-Albumax medium (Grande et al 1977), kirromycin was dissolved in RPMI made alkaline by addition of 1M NaOH, and efrotomycin was dissolved in ethanol before dilution in culture medium. Enacyloxin IIA was dissolved in 1% NaHCO3 prior to dilution in RPMI-Albumax medium. The antibiotic GE2270A was dissolved in 100% DMSO before dilution in culture medium. Fusidic acid (Sigma) was dissolved directly in culture medium, and thiostrepton (Sigma) in 100% DMSO before dilution in culture medium. A hemisuccinate form of thiostrepton was prepared as a potassium salt, according to Bodanszky et al 1965. Incorporation of radiotracers by P.falciparum growing in blood cultures in the presence and absence of drugs was carried out as described (Strath et al 1993).
Kirromycin: Kirromycin-resistant forms of bacterial EF-Tu are modified at one of seven amino acids along the opposing interfaces of domains I and III (Mesters et al 1994 and Abdulkarim et al 1994) and Pf EF-Tupl has a substitution at one of these sites (A375S-E.coli numbers) that could potentially confer resistance to kirromycin. To test this possibility, kirromycin (Mocimycin), its methylated derivative Aurodox or its disaccharide derivative Efrotomycin were incubated with erythrocytic stages of P.falciparum grown in cultures over a 36 hr period. The incorporation of both ^3H-hypoxanthine and ^14C-isoleucine was inhibited in a dose-dependent fashion, maximum inhibition being achieved at 100 μM kirromycin (FIG. 5). […] Once maximal depression of incorporation had been reached at any particular dose of drug, residual incorporation continued at a uniform rate thereafter. Vital staining with rhodamine 123, a fluorescent dye that concentrates within the mitochondrion (Divo et al. 1985) confirmed the parasiticidal effect, loss of specific mt staining being evident within 2-3 hours (data not shown). […] Blood cultures of P.falciparum were about 10 times more sensitive to the antibiotic than a gram-positive bacterium (Corynebacterium spp) used in parallel bioassays.

[2] = system: GTPase domain of Pf 23S rRNApl; experiment: Thiostrepton filter binding assay, transcripts of the GTPase domain of Pf 23S rRNApl (wild type and mutated); parameters: species or system Plasmodium falciparum
Description: (§1) A) Short 23S transcripts of P.falciparum (Pf) wild type rRNApl (open circle A1067) and mutated forms (open square A1067U and filled triangle A1067G), as well as Pf 28S rRNA transcripts (filled square), are compared with an optimized E.coli control transcript (filled circle). For convenience, nucleotide numbers correspond to E.coli.
(§2) Drug binding—Thiostrepton binding to short rRNA transcripts generated in vitro was assayed according to Ryan et al 1991, as modified by Clough et al 1997. […] Before […], samples were incubated on ice for 15 mins in 50 mM imidazole acetate (pH 7.6), 10 mM NH4Cl, 10 mM MgCl2, 1 mM […] and 100 μM GDP, in a final volume of 20 μl.
Having established thiostrepton's activity, we asked “does the antibiotic bind preferentially to the nuclear, mitochondrial or plastid forms of Pf 28/23 S rRNA?”. Evidence that the highest affinity interaction of thiostrepton is with 23S rRNApl was obtained from an in vitro binding assay (Ryan et al 1991). Short transcripts of wild type (wt) RNA corresponding to the GTPase domain of Pf 23S rRNApl (nts 987-1078) were transcribed in vitro from a PCR product that included a T7 promoter sequence in one of the primers. Mutated malarial rRNA sequences (E.coli numbers A1067U and A1067G) were obtained by PCR methodology and transcribed in the same way. Both wild type and modified transcript sequences were verified prior to thiostrepton binding assays. A positive control transcript was used based on the 23S rRNA sequence of E.coli with a mutation (U1061A) that increases stability and binding. […] An intermediate level of binding (˜35% of wt) was obtained with the mutation Pfpl (E.coli number A1067G). Thiostrepton binding to a transcript corresponding to the GTPase domain (nt 1334-1427) of the cytosolic Pf 28S rRNA was ˜10% of that for Pf 23S rRNApl.

[3] = system: GTPase domain of the cytosolic Pf 28S rRNA; experiment: Thiostrepton filter binding assay, cytosolic Pf 28S rRNA transcript; parameters: species or system Plasmodium falciparum; conditions: GTPase domain nt 1334-1427
Description: as §1, §2
Having established thiostrepton's activity, we asked “does the antibiotic bind preferentially to the nuclear, mitochondrial or plastid forms of Pf 28/23 S rRNA?”. Evidence that the highest affinity interaction of thiostrepton is with 23S rRNApl was obtained from an in vitro binding assay (Ryan et al 1991). Short transcripts of wild type (wt) RNA corresponding to the GTPase domain of Pf 23S rRNApl (nts 987-1078) were transcribed in vitro from a PCR product that included a T7 promoter sequence in one of the primers. Mutated malarial rRNA sequences (E.coli numbers A1067U and A1067G) were obtained by PCR methodology and transcribed in the same way. […]

[4] = system: GTPase domain of the E. coli 23S rRNA; experiment: Thiostrepton binding assay, E. coli 23S rRNA transcript; conditions: contains the A at position 1067
Description: The binding was specific. It depended to a large extent on the presence of an A residue at the position corresponding to E. coli position 1067. […] A transcript corresponding to the GTPase domain of the cytosolic malaria 28S rRNA also bound thiostrepton poorly.
as §2
Having established thiostrepton's activity, we asked “does the antibiotic bind preferentially to the nuclear, mitochondrial or plastid forms of Pf 28/23 S rRNA?”. Evidence that the highest affinity interaction of thiostrepton is with 23S rRNApl was obtained from an in vitro binding assay (Ryan et al 1991). Short transcripts of wild type (wt) RNA corresponding to the GTPase domain of Pf 23S rRNApl (nts 987-1078) were transcribed in vitro from a PCR product that included a T7 promoter sequence in one of the primers. Mutated malarial rRNA sequences (E.coli numbers A1067U and A1067G) were obtained by PCR methodology and transcribed in the same way. Both wild type and modified transcript sequences were verified prior to thiostrepton binding assays. […]

[5] = system: GTPase domain of the 23S rRNApl of Toxoplasma gondii; experiment: Thiostrepton filter binding assay, T. gondii 23S rRNApl transcripts
Description: B) T. gondii wild type rRNApl transcript (filled triangle) and mutated transcript (open triangle) compared with control transcripts from P.falciparum rRNApl (open circle) and E.coli (filled circle).
as §2
In the same way, we tested a transcript corresponding to the GTPase domain of the 23S rRNApl of Toxoplasma gondii (Tg), a related apicomplexan that is an important opportunistic pathogen in patients with AIDS. […] This was found also to be the case with a transcript derived from a PCR product covering the GTPase domain of Tgpl 23S rRNA (nt 926-1024) (FIG. 8B). Corrective mutation of the Tgpl transcript (E. coli number […]) conferred a significant increase (×5) in thiostrepton binding (FIG. 8B).

C=C(NC(=O)C(=C)NC(=O)c1csc(C2=N[C@@H]3c4csc(n4)[C@H]4NC(=O)c5csc(n5)[C@H]([C@](C)(O)[C@@H](C)O)NC(=O)[C@H]5CSC(=N5)/C(=C/C)NC(=O)[C@H]([C@@H](C)O)NC(=O)c5csc(n5)[C@]3(CC2)NC(=O)[C@H](C)NC(=O)C(=C)NC(=O)[C@H](C)NC(=O)[C@H]([C@@H](C)CC)N[C@@H]2C=Cc3c([C@H](C)O)cc(nc3[C@H]2O)C(=O)O[C@@H]4C)n1)C(N)=O [thiostrepton]
onset of inhibition of protein synthesis [1]: 5 h
IC50 ([1]; Plasmodium falciparum, 3 h, read-out: 50% inhibition of uptake of 3H-hypoxanthine and 14C-isoleucine): 3 to 5 µM
thiostrepton binding, mutation A1067G ([2]; Pfpl transcript, E.coli number A1067G): ~35 % of wt
thiostrepton binding, mutation A1067U ([2]; Pfpl transcript, E.coli number A1067U): ~14 % of wt
thiostrepton binding to wild type transcript ([2]; short transcript of the GTPase domain, malaria plastid): bound thiostrepton strongly
thiostrepton binding to Pf 28S rRNA transcript relative to Pf 23S rRNApl [3]: ~10%
thiostrepton binding to E. coli transcript [4]: bind thiostrepton strongly
increase in thiostrepton binding by corrective mutation U1077A ([5]; Tgpl transcript, E. coli number U1077A versus wild type): 5 ×
thiostrepton binding to wild type Tgpl transcript ([5]; wild type has substitution E.coli number A1077U, nt 926-1024): inhibits binding
